Test results taken from ChEMBL document CHEMBL5113401, “Novel 1,3,4-oxadiazole chalcogen analogues: Synthesis and cytotoxic activity” (Eur J Med Chem, 2022).
Activity calls are given as the source filed them. The rule behind the calls is not given here.

Assays:
MCF7 = assay: Antiproliferative activity against human MCF7 cells assessed as inhibition of cell growth incubated for 48 hrs by XTT assay; type: functional, cell-based; settings: MCF7, 48 h
PC-3 [1] = assay: Antiproliferative activity against human PC-3 cells assessed as inhibition of cell growth incubated for 48 hrs by XTT assay; type: functional, cell-based; settings: PC-3, 48 h
HeLa [2] = assay: Antiproliferative activity against human HeLa cells assessed as inhibition of cell growth incubated for 48 hrs by XTT assay; type: functional, cell-based
HeLa [3] = assay: Induction of cell cycle arrest in human HeLa cells assessed as accumulation of cells at G2/M phase at 1 uM incubated for 18 hrs by FACS flow cytometry analysis (reference value: 12.66 +/- 0.92 %); type: functional
HeLa [4] = assay: Induction of cell cycle arrest in human HeLa cells assessed as accumulation of cells at G1 phase at 1 uM incubated for 18 hrs by FACS flow cytometry analysis (reference value: 69.94 +/- 1.25 %); type: functional
HeLa [5] = assay: Induction of cell cycle arrest in human HeLa cells assessed as accumulation of cells at S phase at 1 uM incubated for 18 hrs by FACS flow cytometry analysis (reference value: 17.41 +/- 1.16 %); type: functional
PC-3 [6] = assay: Induction of cell cycle arrest in human PC-3 cells assessed as accumulation of cells at G1 phase at 1 uM incubated for 12 hrs by FACS flow cytometry analysis (reference value: 44.2 +/- 2.01 %); type: functional
NB1 = assay: Cytotoxicity against human NB1 cells immortalized with hTERT plasmid assessed as reduction in cell viability at 1 to 2 uM incubated for 48 hrs by XTT assay; type: toxicity, cell-based; settings: nb1, 48 h, dose 1-2 µM
HFF-1 = assay: Cytotoxicity against HFF-1 cells assessed as reduction in cell viability at 1 to 2 uM incubated for 48 hrs by XTT assay; type: toxicity, cell-based; settings: human, hff-1, 48 h, dose 1-2 µM
PC-3 [7] = assay: Induction of cell cycle arrest in human PC-3 cells assessed as accumulation of cells at G2/M phase at 1 uM incubated for 6 hrs by FACS flow cytometry analysis (reference value: 20.74 +/- 1.93 %); type: functional
HeLa [8] = assay: Inhibition of colony formation in human HeLa cells at IC50 incubated for 2 weeks with culture medium replacement for every 3 days by crystal violet staining based analysis; type: functional, cell-based
PC-3 [9] = assay: Induction of cell cycle arrest in human PC-3 cells assessed as accumulation of cells at S phase at 1 uM incubated for 12 hrs by FACS flow cytometry analysis (reference value: 35.06 +/- 1.36 %); type: functional
Tubulin (Homo sapiens) [10] = target: T1, Tubulin (Homo sapiens) (UniProt P68371+Q9H4B7+P0DPH7+P68366+Q13509+Q71U36+P04350+Q3ZCM7+P07437+P68363+Q9BQE3+Q6PEY2+Q13885+Q9BVA1+Q9BUF5); assay: Inhibition of tubulin polymerization in human HeLa cells assessed as irregular cell morphology at 0.5 uM incubated for 6 hrs by DAPI staining based fluorescence microscopic analysis
HeLa [11] = assay: Induction of apoptosis in human HeLa cells assessed as early apoptotic cells at 1 uM incubated for 24 hrs by Annexin V-FITC/7-AAD staining based flow cytometric analysis (reference value: 2.7 +/- 0.424 %); type: functional
PC-3 [12] = assay: Induction of cell cycle arrest in human PC-3 cells assessed as accumulation of cells at S phase at 1 uM incubated for 6 hrs by FACS flow cytometry analysis (reference value: 35.06 +/- 1.85 %); type: functional
PC-3 [13] = assay: Inhibition of colony formation in human PC-3 cells at IC50 incubated for 2 weeks with culture medium replacement for every 3 days by crystal violet staining based analysis; type: functional, cell-based
HeLa [14] = assay: Induction of apoptosis in human HeLa cells assessed as dead cells at 1 uM incubated for 24 hrs by Annexin V-FITC/7-AAD staining based flow cytometric analysis (reference value: 0.6 +/- 0.707 %); type: functional
HeLa [15] = assay: Induction of apoptosis in human HeLa cells assessed as late apoptotic cells at 1 uM incubated for 24 hrs by Annexin V-FITC/7-AAD staining based flow cytometric analysis (reference value: 11.1 +/- 0.778 %); type: functional
PC-3 [16] = assay: Induction of cell cycle arrest in human PC-3 cells assessed as accumulation of cells at G2/M phase at 1 uM incubated for 12 hrs by FACS flow cytometry analysis (reference value: 20.74 +/- 1.95 %); type: functional
HeLa [17] = assay: Induction of apoptosis in human HeLa cells assessed as viable cells at 1 uM incubated for 24 hrs by Annexin V-FITC/7-AAD staining based flow cytometric analysis (reference value: 85.6 +/- 1.061%); type: functional; settings: read-out: Activity
Tubulin (Homo sapiens) [18] = target: T1, Tubulin (Homo sapiens); assay: Inhibition of tubulin polymerization in human HeLa cells assessed as aberrations in mitotic spindle and nucleus at 0.5 uM incubated for 6 hrs by DAPI staining based fluorescence microscopic analysis; type: cell-based
Tubulin (Homo sapiens) [19] = target: T1, Tubulin (Homo sapiens); assay: Inhibition of tubulin polymerization in human HeLa cells assessed as abnormal microtubule network at 0.5 uM incubated for 6 hrs by DAPI staining based fluorescence microscopic analysis; type: cell-based
HeLa [20] = assay: Induction of cell cycle arrest in human HeLa cells assessed as accumulation of cells at G2/M phase at 1 uM incubated for 6 hrs by FACS flow cytometry analysis (reference value: 12.66 +/- 0.88 %); type: functional
PC-3 [21] = assay: Induction of cell cycle arrest in human PC-3 cells assessed as accumulation of cells at G1 phase at 1 uM incubated for 6 hrs by FACS flow cytometry analysis (reference value: 44.2 +/- 2.21 %); type: functional
HeLa [22] = assay: Induction of cell cycle arrest in human HeLa cells assessed as accumulation of cells at S phase at 1 uM incubated for 6 hrs by FACS flow cytometry analysis (reference value: 17.41 +/- 0.96 %); type: functional
HeLa [23] = assay: Induction of cell cycle arrest in human HeLa cells assessed as accumulation of cells at G1 phase at 1 uM incubated for 6 hrs by FACS flow cytometry analysis (reference value: 69.94 +/- 1.71 %); type: functional

Row | IC50 (MCF7) [µM] | IC50 (PC-3 [1]) [µM] | IC50 (HeLa [2]) [µM] | Structure (SMILES) | Activity (HeLa [3]) [%] | Activity (HeLa [4]) [%] | Activity (HeLa [5]) [%] | Activity (PC-3 [6]) [%] | Activity (NB1) | Activity (HFF-1) | Activity (PC-3 [7]) [%] | inhibition (HeLa [8]) | Activity (PC-3 [9]) [%] | inhibition (Tubulin (Homo sapiens) [10]) | Activity (HeLa [11]) [%] | Activity (PC-3 [12]) [%] | inhibition (PC-3 [13]) | Activity (HeLa [14]) [%] | Activity (HeLa [15]) [%] | Activity (PC-3 [16]) [%] | viability at 1 µM (HeLa [17]) [%] | further results
1 | > 10 | > 10 | > 10 | COc1cc(-c2nnc(-c3c(C)[nH]c4c3Cc3ccccc3-4)[se]2)cc(OC)c1OC | – | – | – | – | – | – | – | – | – | – | – | – | – | – | – | – | – | –
2 | > 10 | > 10 | > 10 | Cc1[nH]c2c(c1-c1nnc(-c3ccc(Cl)cc3)s1)Cc1ccccc1-2 | – | – | – | – | – | – | – | – | – | – | – | – | – | – | – | – | – | –
3 | > 10 | > 10 | > 10 | COc1ccc(-c2nnc(-c3c(C)[nH]c4c3Cc3ccccc3-4)s2)cc1 | – | – | – | – | – | – | – | – | – | – | – | – | – | – | – | – | – | –
4 | > 10 | > 10 | > 10 | COc1ccc(-c2nnc(-c3c(C)[nH]c4c3Cc3ccccc3-4)[se]2)cc1 | – | – | – | – | – | – | – | – | – | – | – | – | – | – | – | – | – | –
5 | > 10 | > 10 | > 10 | Cc1[nH]c2c(c1-c1nnc(-c3ccc(Cl)c(Cl)c3)[se]1)Cc1ccccc1-2 | – | – | – | – | – | – | – | – | – | – | – | – | – | – | – | – | – | –
6 | > 10 | > 10 | > 10 | Cc1[nH]c2c(c1-c1nnc(-c3cccc(Cl)c3)s1)Cc1ccccc1-2 | – | – | – | – | – | – | – | – | – | – | – | – | – | – | – | – | – | –
7 | > 10 | > 10 | > 10 | Cc1[nH]c2c(c1-c1nnc(-c3ccc(C(C)(C)C)cc3)s1)Cc1ccccc1-2 | – | – | – | – | – | – | – | – | – | – | – | – | – | – | – | – | – | –
8 | > 10 | > 10 | > 10 | Cc1[nH]c2c(c1-c1nnc(-c3ccc(C(C)(C)C)cc3)[se]1)Cc1ccccc1-2 | – | – | – | – | – | – | – | – | – | – | – | – | – | – | – | – | – | –
9 | > 10 | > 10 | > 10 | Cc1[nH]c2c(c1-c1nnc(-c3ccc(Cl)c(Cl)c3)s1)Cc1ccccc1-2 | – | – | – | – | – | – | – | – | – | – | – | – | – | – | – | – | – | –
10 | > 10 | > 10 | > 10 | COc1cc(-c2nnc(-c3c(C)[nH]c4c3Cc3ccccc3-4)s2)cc(OC)c1OC | – | – | – | – | – | – | – | – | – | – | – | – | – | – | – | – | – | –

Row | Structure (SMILES) | IC50 (MCF7) [µM] | IC50 (PC-3 [1]) [µM] | IC50 (HeLa [2]) [µM] | Activity (HeLa [3]) [%] | Activity (HeLa [4]) [%] | Activity (HeLa [5]) [%] | Activity (PC-3 [6]) [%] | Activity (NB1) | Activity (HFF-1) | Activity (PC-3 [7]) [%] | inhibition (HeLa [8]) | Activity (PC-3 [9]) [%] | inhibition (Tubulin (Homo sapiens) [10]) | Activity (HeLa [11]) [%] | Activity (PC-3 [12]) [%] | inhibition (PC-3 [13]) | Activity (HeLa [14]) [%] | Activity (HeLa [15]) [%] | Activity (PC-3 [16]) [%] | viability at 1 µM (HeLa [17]) [%] | further results
11 | Cc1[nH]c2c(c1-c1nnc(-c3ccccc3)s1)Cc1ccccc1-2 | 0.555 | 0.38 | 0.324 | 56.51 | 22.86 | 20.62 | 15.37 | Non-Toxic | Non-Toxic | 34.04 | Active | 23.79 | Active | 9.2 | 21.51 | Active | 4.3 | 22.7 | 60.84 | 63.8 | inhibition (Tubulin (Homo sapiens) [18]): Active; inhibition (Tubulin (Homo sapiens) [19]): Active; Activity (HeLa [20]): 33.03%; Activity (PC-3 [21]): 44.45%; Activity (HeLa [22]): 40.38%; Activity (HeLa [23]): 26.59%
12 | Cc1[nH]c2c(c1-c1nnc(-c3ccccc3Cl)[se]1)Cc1ccccc1-2 | 0.091 | 0.067 | 0.005 | 85.47 | 2.03 | 12.5 | 0.64 | Non-Toxic | Non-Toxic | 31.52 | Active | 5.7 | Active | 11.9 | 55.33 | Active | 5.3 | 58.2 | 93.66 | 24.6 | inhibition (Tubulin (Homo sapiens) [18]): Active; inhibition (Tubulin (Homo sapiens) [19]): Active; Activity (HeLa [20]): 23.09%; Activity (PC-3 [21]): 13.15%; Activity (HeLa [22]): 35.29%; Activity (HeLa [23]): 41.62%
13 | Cc1[nH]c2c(c1-c1nnc(-c3ccc(Cl)cc3)[se]1)Cc1ccccc1-2 | > 10 | > 10 | > 10 | – | – | – | – | – | – | – | – | – | – | – | – | – | – | – | – | – | –
14 | Cc1[nH]c2c(c1-c1nnc(-c3cccc(Cl)c3)[se]1)Cc1ccccc1-2 | 0.216 | 0.548 | 0.083 | 89.4 | 1.15 | 9.44 | 1.87 | Non-Toxic | Non-Toxic | 34.87 | Active | 8.65 | Active | 2.7 | 54.7 | Active | 1.8 | 15.4 | 89.48 | 80.1 | inhibition (Tubulin (Homo sapiens) [18]): Active; inhibition (Tubulin (Homo sapiens) [19]): Active; Activity (HeLa [20]): 23.63%; Activity (PC-3 [21]): 10.43%; Activity (HeLa [22]): 48.5%; Activity (HeLa [23]): 27.87%
15 | Cc1[nH]c2c(c1-c1nnc(-c3ccccc3)[se]1)Cc1ccccc1-2 | 0.176 | 0.072 | 0.009 | 88.58 | 1.06 | 10.36 | 1.01 | Non-Toxic | Non-Toxic | 34.99 | Active | 6.68 | Active | 8.9 | 56.26 | Active | 3.4 | 19.7 | 92.31 | 68 | inhibition (Tubulin (Homo sapiens) [18]): Active; inhibition (Tubulin (Homo sapiens) [19]): Active; Activity (HeLa [20]): 5.51%; Activity (PC-3 [21]): 8.76%; Activity (HeLa [22]): 70.25%; Activity (HeLa [23]): 24.24%
16 | Cc1[nH]c2c(c1-c1nnc(-c3ccccc3Cl)s1)Cc1ccccc1-2 | 0.468 | 0.176 | 0.145 | 88.99 | 1.49 | 9.52 | 1.71 | Non-Toxic | Non-Toxic | 37.68 | Active | 5.55 | Active | 31.9 | 51.2 | Active | 5.9 | 17.4 | 92.74 | 44.8 | inhibition (Tubulin (Homo sapiens) [18]): Active; inhibition (Tubulin (Homo sapiens) [19]): Active; Activity (HeLa [20]): 3.84%; Activity (PC-3 [21]): 11.13%; Activity (HeLa [22]): 68.91%; Activity (HeLa [23]): 27.25%
